# Data published in ChEMBL document CHEMBL1148961, “10-membered macrolides from the insect pathogenic fungus Cordyceps militaris BCC 2816” (J Nat Prod, 2004).
# The source made the active and inactive calls. The calls are words filed in the database; no cut-off is given here.
# Assays:
# Plasmodium falciparum [1] = assay: Antimalarial activity against multidrug-resistant Plasmodium falciparum K1 after 24 hrs by [3H]hypoxanthine uptake; assay type: functional, organism-based
# Plasmodium falciparum [2] = assay: Antimalarial activity against multidrug-resistant Plasmodium falciparum K1 at <20 ug/mL after 24 hrs by [3H]hypoxanthine uptake; assay type: functional, organism-based
Structure (SMILES),IC50 (Plasmodium falciparum [1]),Activity (Plasmodium falciparum [2])
C[C@H]1[C@@H](O)O[C@@H]2O[C@@]3(C)CC[C@H]4[C@H](C)CC[C@@H]1[C@@]24OO3 [ARTENIMOL],0.0012 µg/mL,
CO[C@H]1CC(=O)CC[C@@H](C)OC(=O)C[C@@H]1O,,inactive
CO[C@@H]1CC(=O)CC[C@@H](C)OC(=O)C[C@@H]1O,,inactive
Nc1ncnc2c1ncn2[C@@H]1O[C@H](CO)C[C@H]1O [CORDYCEPIN],4.5 µg/mL,
C[C@@H]1CCC(=O)C[C@H](O)[C@@H](O)CC(=O)O1,,inactive
C[C@@H]1CC[C@@H](O)/C=C/[C@@H](O)CC(=O)O1,,inactive
